≈ marks a conversion by molar mass, not a printed value.
Assays:
Format in all cases: in vivo
[1] = test system: root-knot nematode, Meloidogyne incognita var. acrita; experiment: Nematocide Test; design: key: C: no control; B: partial control; A: excellent control; conditions: 3.33 m.g. per jar, galling of cucumber rated after approximately 3 weeks
Description: The test organism used was the infective migratory larvae of the root-knot nematode, Meloidogyne incognita var. acrita, reared in the greenhouse on roots of cucumber plants. Infected plants were removed from the culture, and the roots are chopped very finely. A small amount of this inoculum was added to a pint jar containing approximately 180 cc. of soil. The jars were capped and incubated for one week at room temperature. During this period eggs of the nematode were hatched, and the larval forms migrated into the soil.
Ten ml. of the test formulation were added to each of the two jars for each dosage tested. Following the addition of chemical, the jars were capped, and the contents thoroughly mixed on a ball mill for 5 minutes.
The test compounds were formulated by a standard procedure of solution in acetone addition of an emulsifier, and dilution with water. Primary screening tests were conducted at 3.33 m.g. of the test compound per jar.
The jars were left capped at room temperature for a period of 48 hours, and the contents then transferred to 3 inch pots. Subsequently, the pots were seeded to cucumber as an indicator crop and placed in the greenhouse where they were cared for in the normal fashion for approximately 3 weeks.
The cucumber plants were then taken from the pots, the soil removed from the roots, and the amount of galling visually rated.
In the tests described above, the pesticidal activity of the compounds against aphid, mite, Southern Armyworm, Bean Beetle, house fly and nematode was rated as follows: […]

[2] = test system: bean aphid (Aphis fabae Scop.); experiment: Bean Aphid Foliage Spray Test; design: key to Aphid: C: no control; B: partial control; A: excellent control; conditions: for Aphid: foliage spray, 500 parts per million, 24 hour; for LC50: Aphis fabae, foliar, Table II, side by side comparison, read-out: Aphids LD50
Description: (§1) Suspensions of the test compounds were prepared by dissolving one gram of compound in 50 milliliters of acetone in which had been dissolved 0.1 gram (10 percent of the weight of compound) of an alkylphenoxy polyethoxyethanol surfactant, as an emulsifying or dispersing agent. The resulting solution was mixed into 150 milliliters of water to give roughly 200 milliliters of a suspension containing the compound in finely divided form. The thus-prepared stock suspension contained 0.5 percent by weight of compound. The test concentrations in parts per million by weight employed in the tests described hereinbelow were obtained by appropriate dilutions of the stock suspension with water. The test procedures were as follows:
Adults and nymphal stages of the bean aphid (Aphis fabae Scop.) reared on potted dwarf nasturtium plants at 65°-70° F. and 50-70 percent relative humidity, constituted the test insects. For testing purposes, the number of aphids per pot was standardized to 100-150 by trimming plants containing excess aphids.
The test compounds were formulated by diluting the stock suspension with water to give a suspension containing 500 parts of test compound per million parts of final formulation.
The potted plants (one pot per compound tested) infested with 100-150 aphids, were placed on a revolving turntable and sprayed with 100-110 milliliters of test compound formulation by use of a DeVilbiss spray gun set at 40 psig. air pressure. This application, which lasted 25 seconds, was sufficient to wet the plants to run-off. As a control, 100-110 milliliters of a water-acetone-emulsifier solution containing no test compound were also sprayed on infested plants. After spraying, the pots were placed on their sides on a sheet of white standard mimeograph paper which had been previously ruled to facilitate counting. Temperature and humidity in the test room during the 24 hour holding period were 65°-70° F. and 50-70 percent, respectively. Aphids which fell onto the paper and were unable to remain standing after being uprighted were considered dead. Aphids remaining on the plants were observed closely for movement and those which were unable to move the length of the body upon stimulation by prodding were considered dead. Percent mortality was recorded for various concentration levels.
(§2) In the tests described above, the pesticidal activity of the compounds against aphid, mite, Southern Armyworm, Bean Beetle, house fly and nematode was rated as follows:
(§3) Comparison tests were conducted to assess the biological and chemical properties of certain representative species of the claimed invention in relation to their corresponding N-methyl carbamate compositions. The test procedures described above were employed in these experiments in order to determine the LD50 (number of parts per million of active ingredients required to achieve fifty percent mortality of the insects tested) for each of the compositions tested. In the case of the aphid and mite tests a side by side comparison was made of the N-methyl carbamate composition versus the corresponding perhalomethylsulfenyl derivative.

[3] = test system: Mexican bean beetle (Epilachna varivestis, Muls.); experiment: Mexican Bean Beetle Leaf Spray Test; design: key to Beetle: C: no control; B: partial control; A: excellent control; conditions: for Beetle: leaf spray, 500 parts per million, three days; for LC50: Epilachna varivestis, Table II, read-out: Beetle LD50
Description: as §1
Fourth instar larvae of the Mexican bean beetle (Epilachna varivestis, Muls.), reared on Tendergreen bean plants at a temperature of 80°±5° F. and 50±5 percent relative humidity, were the test insects.
The test compounds were formulated by diluting the stock suspension with water to give a suspension containing 500 parts of test compound per million parts of final formulation. Potted Tendergreen bean plants of standard height and age were placed on a revolving turntable and sprayed with 100-110 milliliters of test compound formulation by use of a DeVilbiss spray gun set at 10 psig air pressure. This application, which lasted 25 seconds, was sufficient to wet plants to run-off. As a control, 100-110 milliliters of a water-acetone-emulsifier solution containing no test compound were also sprayed on infested plants. When dry, the paired leaves were separated and each was placed in a 9 centimeter Petri dish lined with moistened filter paper. Five randomly selected larvae were introduced into each dish, and the dishes were closed. The closed dishes were labeled and held at a temperature of 80°±5° F. for three days. Although the larvae could easily consume the leaf within 24 to 48 hours, no more food was added. Larvae which were unable to move the length of the body, even upon stimulation, were considered dead.
as §2, §3

[4] = test system: house flies (Musca domestica, L.); experiment: Fly Bait Test; design: key to Fly: C: no control; B: partial control; A: excellent control; conditions: for Fly: bait, 500 parts per million, twenty-four hours; for LC50: Musca domestica, Table II, read-out: Housefly LD50
Description: as §1
Four to six day old adult house flies (Musca domestica, L.), reared according to the specifications of the Chemical Specialties Manufacturing Association (Blue Book, McNair-Dorland Co., N. Y. 1954; pages 243-244, 261) under controlled conditions of 80°±5° F. and 50±5 percent relative humidity, were the test insects. The flies were immobilized by anesthetizing with carbon dioxide and twenty-five immobilized individuals, males and females, were transferred to a cage consisting of a standard food strainer about five inches in diameter which was inverted over a wrapping-paper-covered surface. The test compounds were formulated by diluting the stock suspension with a 10 percent (by weight) sugar solution to give a suspension containing 500 parts of test compound per million parts of final formulation, by weight. Ten milliliters of the test formulation were added to a souffle cup containing a one-inch square of an absorbent cotton pad. This bait cup was introduced and centered on the blotting paper under the food strainer prior to admitting the anesthetized flies. The caged flies were allowed to feed on the bait for twenty-four hours, at a temperature of 80°±5° F. and the relative humidity of 50±5 percent.
as §2, §3

Row | SMILES | Nematode [1] | Aphid [2] | Beetle [3] | Fly [4] | LC50 [2] [µg/mL] | LC50 [3] [µg/mL] | LC50 [4] [µg/mL]
1 | CSCC(C)=NOC(=O)N(C)SC(Cl)(Cl)Cl | C | B | C | A |  |  | 
2 | CSCC(=NOC(=O)N(C)SC(Cl)(Cl)Cl)C(C)(C)C | C | A | A | B |  |  | 
3 | CC(CSC(C)(C)C)=NOC(=O)N(C)SC(Cl)(Cl)Cl | C | A | C | C |  |  | 
4 | CC(=NOC(=O)N(C)SC(Cl)(Cl)Cl)C(C)(C)N=[N+]=[N-] | C | A | A | A |  |  | 
5 | CC(=NOC(=O)N(C)SC(Cl)(Cl)Cl)C(C)(C)[N+](=O)[O-] | A | A | A | A |  |  | 
6 | CC(C[N+](=O)[O-])=NOC(=O)N(C)SC(Cl)(Cl)Cl | C | C | B | A |  |  | 
7 | CC(=NOC(=O)N(C)SC(Cl)(Cl)Cl)C(C)(C)C#N | C | A | A | A |  |  | 
8 | COC(C)(C)C(Cl)=NOC(=O)N(C)SC(Cl)(Cl)Cl | A | A | A | A |  |  | 
9 | CCOC(=O)CSC(C)(C)C=NOC(=O)N(C)SC(Cl)(Cl)Cl | C | A | B | C |  |  | 
10 | CCOC(=O)C(C)SC(C)(C)C=NOC(=O)N(C)SC(Cl)(Cl)Cl (stereo not shown) | C | A | C | C |  |  | 
11 | CSC(=NOC(=O)N(C)SC(Cl)(Cl)Cl)C(C)(SC)SC | C | A | A | A |  |  | 
12 | CCOC(=O)CSC(C)=NOC(=O)N(C)SC(Cl)(Cl)Cl | C | C | C | C |  |  | 
13 | CCOC(=O)CCSC(C)=NOC(=O)N(C)SC(Cl)(Cl)Cl | C | B | B | B |  |  | 
14 | CC(=NOC(=O)N(C)SC(Cl)(Cl)Cl)SCCC#N [1-(2-Cyanoethylthio)acetaldehyde O-(N-methyl-N-trichloromethanesulfenylcarbamoyl)oxime] | C | A | A | A | 10 (≈ 28.5 µM) | 15 (≈ 42.8 µM) | 3 (≈ 8.55 µM)
15 | CN(SC(Cl)(Cl)Cl)C(=O)ON=CC(C)(C)C#N [2-Methyl-2-cyanopropionaldehyde O-(N-methyl-N-trichloromethanesulfenylcarbamoyl)oxime] | C | A | A | A | 23 (≈ 72.2 µM) | 45 (≈ 141 µM) | 7 (≈ 22 µM)
16 | CN(SC(Cl)(Cl)Cl)C(=O)ON=CC(C)(C)[S+](C)[O-] (stereo not shown) [2-Methyl-2-methylsulfinylpropionaldehyde O-(N-methyl-N-trichloromethanesulfenylcarbamoyl)oxime] | A | A | A | A |  |  | 
17 | CN(SC(Cl)(Cl)Cl)C(=O)ON=CC(C)(C)S(C)(=O)=O [2-Methyl-2-methylsulfonylpropionaldehyde O-(N-methyl-N-trichloromethanesulfenylcarbamoyl)oxime] | C | A | A | A |  |  | 
18 | CN(SC(Cl)(Cl)Cl)C(=O)ON=CC(C)(C)[N+](=O)[O-] [2-Methyl-2-nitropropionaldehyde O-(N-methyl-N-trichloromethanesulfenylcarbamoyl)oxime] | A | A | A | A | 6 (≈ 17.7 µM) | 17 (≈ 50.2 µM) | 5 (≈ 14.8 µM)
19 | CN(SC(F)(F)F)C(=O)ON=CC(C)(C)C#N [drawing 12] | A | A | A | A |  |  | 
